Results on 3 compounds are retold here after patent US12209143B2, “Versatile peptide and protein macrocyclization and multimerization with diels-alder cycloadditions” (The University of Chicago, priority 2019, dated 2025).

In data set [1] the target is T1, chymotrypsin (Bos taurus, UniProt P00766).
T1 construct: purchased Thermo Pierce
Put plainly: In vitro chymotrypsin resistance assay. Format: in vitro ADME. Particulars: 0.5 μg/mL chymotrypsin, 37° C. As for the experimental part:
(§1) DAC protease stability assays. DAC peptide protease degradation kinetics were determined with Thermo Pierce™ MS-Grade Trypsin or Chymotrypsin Protease in PBS or TBS with 5 mM DTT and 2 mM CaCl2. Protease (1 eq) was added to buffer for a final assay concentration of 10 μg/mL trypsin or 0.5 μg/mL chymotrypsin. Each respective reaction mixture was then added to either 1 wt and 1a (2000 eq) or 4 wt and 4a (10,000 eq). Samples were then incubated at 37° C., 1,000 rpm. 5 min, 10 min, 30 min, 2 hr, and 4 hr time points were quenched in an equal volume of 2% TFA/H2O on ice. After 5 min, samples were centrifuged for 2 min at 17,000 rcf to precipitate quenched trypsin. Supernatant solutions were then analyzed and intact peptide quantified by LC-MS or Q-TOF.

Data set [2] concerns the target T2, ERα (Homo sapiens, UniProt P03372).
T2 construct: Wildtype and Y537S 6×His-TEV-ERα (residues 300-550) in pET21a(+) was expressed in E. coli BL21(DE3); 6×His-TEV (N, cleaved yes); made in house; host or cells: E. coli BL21(DE3)
T2 sequence (P03372 300-550): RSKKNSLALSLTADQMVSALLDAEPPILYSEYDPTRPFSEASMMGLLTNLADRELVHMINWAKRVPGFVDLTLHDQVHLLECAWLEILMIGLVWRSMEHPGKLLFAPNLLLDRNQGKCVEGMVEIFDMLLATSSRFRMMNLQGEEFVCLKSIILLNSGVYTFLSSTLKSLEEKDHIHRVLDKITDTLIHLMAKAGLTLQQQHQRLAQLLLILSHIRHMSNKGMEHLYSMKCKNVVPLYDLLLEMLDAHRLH
The experiment in a line: Competitive fluorescence polarization (FP) binding assay of DAC-SRC2 peptides. As for the experimental part:
Competitive fluorescence polarization (FP) assay. […] Plates were incubated at 4° C. for 1 hr, imaged using standard FP assay settings at 30° C., and data analyzed as previously described.
(In fluorescence polarisation assays a small probe gives low polarisation when free and higher when bound to something large.)

Data set [3] concerns the target T3, trypsin (Sus scrofa, UniProt P00761).
T3 construct: purchased Thermo Pierce
The experiment in a line: In vitro trypsin resistance assay. Format: in vitro ADME. The conditions noted are these: 10 μg/mL trypsin, 37° C. The method, then: as §1

Where two headings read alike, the source gives them in different places.

T3 sequence (P00761 9-231): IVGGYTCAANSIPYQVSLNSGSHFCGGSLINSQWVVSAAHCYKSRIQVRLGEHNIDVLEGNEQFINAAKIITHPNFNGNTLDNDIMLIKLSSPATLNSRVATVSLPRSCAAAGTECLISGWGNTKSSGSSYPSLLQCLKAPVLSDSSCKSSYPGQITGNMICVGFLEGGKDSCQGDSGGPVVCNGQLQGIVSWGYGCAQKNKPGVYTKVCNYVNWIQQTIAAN

As to Ac-CAVPAVYK-NH2 [4 wt], the degradation by chymotrypsin result in data set [1] is on record as “degraded more rapidly than 4a”. As usually defined, the Ki is the equilibrium dissociation constant of an inhibitor or competing ligand from its target. Broadly, the IC50 is the point on the concentration scale where inhibition reaches its midpoint. As for `CC[C@H](C)[C@H](NC(=O)[C@H](CCCCN)NC(=O)[C@H](Cc1c[nH]cn1)NC(C)=O)C(=O)N[C@@H](CC(C)C)C(=O)N[C@@H](Cc1c[nH]cn1)C(=O)N[C@H]1CCCCNC(=O)CN2C(=O)C3C4C=CC(C[C@@H](C(=O)N[C@@H](CO)C(N)=O)NC(=O)[C@H](CCC(N)=O)NC(=O)[C@H](CC(C)C)NC(=O)[C@H](CC(C)C)NC1=O)(O4)C3C2=O` (some centres unmarked) [7a], the Ki in data set [2] (calculated from competitive FP assay, ERα, value (± s.e.m.)) is 210 nM. The IC50 was about 500 nM in data set [2] (competing a fluorescein-linked SRC2 peptide off of ERα, read-out: IC50 (approximate)) and 480 nM in data set [2] (competitive FP, wildtype ERα, fluorescein-labeled SRC peptide tracer, value (± s.e.m.), read-out: IC50).

Take `CC(=O)N[C@H]1CSCC2C=CC(C)C3C(=O)N(CC(=O)NCCCC[C@@H](C(N)=O)NC(=O)[C@H](CC(=O)O)NC(=O)CNC(=O)[C@H](CCCNC(=N)N)NC1=O)C(=O)C23` (some centres unmarked) [1a, CHexRGDKMal]: the degradation by trypsin entry in data set [3] is “extended half-life”.
